This note sets out measurements from patent publication US20140171431A1, “AZOLE HETEROCYCLIC COMPOUND, PREPARATION METHOD, PHARMACEUTICAL COMPOSITION AND USE” (priority 2011, published 2014).

Read-outs that look alike come from different tables or passages of the source.

For one assay, the target named is T1, Lp-PLA2 in rabbit serum (Oryctolagus cuniculus, UniProt G1SE06).
T1 construct: from tissue; host or cells: rabbit serum
T1 sequence (G1SE06 22-423): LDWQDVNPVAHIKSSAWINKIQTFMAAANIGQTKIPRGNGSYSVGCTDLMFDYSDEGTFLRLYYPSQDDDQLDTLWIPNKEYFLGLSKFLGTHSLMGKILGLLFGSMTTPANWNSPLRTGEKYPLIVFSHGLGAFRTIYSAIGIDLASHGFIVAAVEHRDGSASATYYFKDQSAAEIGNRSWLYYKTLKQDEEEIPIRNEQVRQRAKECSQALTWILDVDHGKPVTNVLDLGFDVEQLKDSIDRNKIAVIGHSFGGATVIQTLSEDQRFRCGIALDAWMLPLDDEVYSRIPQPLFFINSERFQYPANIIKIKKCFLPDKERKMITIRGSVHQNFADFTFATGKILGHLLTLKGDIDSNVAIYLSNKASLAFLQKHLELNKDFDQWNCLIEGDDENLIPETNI
Briefly: In vitro inhibitory activity towards the enzyme Lp-PLA2 in rabbit serum, [3H]PAF substrate. Format: biochemical. The settings on record: 100 nM.

For the next assay, the target named is T2, Lp-PLA2 in human serum (Homo sapiens, UniProt Q13093).
T2 construct: from tissue
T2 sequence (Q13093 22-441): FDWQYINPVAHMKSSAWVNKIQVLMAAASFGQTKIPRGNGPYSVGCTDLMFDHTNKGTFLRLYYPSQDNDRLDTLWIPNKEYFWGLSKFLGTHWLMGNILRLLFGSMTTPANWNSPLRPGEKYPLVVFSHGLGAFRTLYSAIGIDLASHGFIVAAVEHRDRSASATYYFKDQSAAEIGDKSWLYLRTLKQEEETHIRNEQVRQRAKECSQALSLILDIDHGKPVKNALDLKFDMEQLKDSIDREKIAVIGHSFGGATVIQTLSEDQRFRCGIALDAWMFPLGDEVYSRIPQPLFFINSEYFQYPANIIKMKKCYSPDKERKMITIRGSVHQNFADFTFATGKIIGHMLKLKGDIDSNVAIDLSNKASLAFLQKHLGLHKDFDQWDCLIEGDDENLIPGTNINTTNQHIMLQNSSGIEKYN
In words: In vitro inhibitory activity towards the enzyme Lp-PLA2 in human serum, [3H]PAF substrate. The class given is biochemical. The settings on record: for inhibition at 0.01 µM: 10 nM; for inhibition at 0.1 µM: 100 nM. A digest of the protocol: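 Human plasma was preincubated with compound 10 min at 37 °C in 50 mM HEPES, 150 mM NaCl, pH 7.4. Reaction started with 20 nM [3H]PAF, run 10 min at 37 °C, then extracted with CHCl3/MeOH (2:1); radioactivity of the supernatant was counted.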

Where [1] appears, read: rabbit serum, read-out: inhibition, %.
The mark [2] stands for this setting: human serum, read-out: inhibition, %.
[3] abbreviates: read-out: inhibitory rate towards the rabbit serum derived Lp-PLA2 enzyme.
Where [4] appears, read: read-out: inhibitory rate towards the human serum derived Lp-PLA2 enzyme.

On to `CN(C)C1CCN(Cc2nnc(Cn3c(SCc4ccc(F)cc4)nc(=O)c4c3CCC4)n2Cc2ccc(-c3ccc(C(F)(F)F)cc3)cc2)CC1` [Example 103, 1-((5-((4-(dimethylamino)piperidin-1-yl)methyl)-4-((4′-(trifluoromethyl)biphenyl-4-yl)methyl)-4H-1,2,4-triazol-3-yl)methyl)-2-(4-fluorobenzylthio)-6,7-dihydro-1-cyclopenta[d]pyrimidin-4(5H)-one], for which the figures for the inhibition at 0.1 µM on Lp-PLA2 in rabbit serum (setting [1]) and at Lp-PLA2 in human serum (human serum) were 82% and 98%, respectively. In addition, the inhibition at 0.01 µM at Lp-PLA2 in human serum (setting [2]) was determined as 71%.

`O=c1nc(SCc2ccc(F)cc2)n(Cc2nnc(CN3CCC(F)(F)C3)n2Cc2ccc(-c3ccc(C(F)(F)F)cc3)cc2)c2c1CCC2` [Example 104, 1-((5-((3,3-difluoropyrrolidin-1-yl)methyl)-4-((4′-(trifluoromethyl)biphenyl-4-yl)methyl)-4H-1,2,4-triazol-3-yl)methyl)-2-(4-fluorobenzylthio)-6,7-dihydro-1H-cyclopenta[d]pyrimidin-4(5H)-one]: the inhibition at 0.1 µM turned out to be 67% at Lp-PLA2 in rabbit serum (setting [1]) and 86% against Lp-PLA2 in human serum (human serum). Further, the inhibition at 0.01 µM on Lp-PLA2 in human serum (setting [2]) came out at 53%.

For the compound `CN(C)CCNCc1nnc(Cn2c(SCc3ccc(F)cc3)nc(=O)c3c2CCC3)n1Cc1ccc(-c2ccc(C(F)(F)F)cc2)cc1` [Example 105, 1-((5-((2-(dimethylamino)ethylamino)methyl)-4-((4′-(trifluoromethyl)biphenyl-4-yl)methyl)-4H-1,2,4-triazol-3-yl)methyl)-2-(4-fluorobenzylthio)-6,7-dihydro-1H-cyclopenta[d]pyrimidin-4(5H)-one], at Lp-PLA2 in rabbit serum (setting [1]), the inhibition at 0.1 µM worked out at 98%. Besides, the inhibition at 0.01 µM on Lp-PLA2 in human serum (setting [2]) is 72%.

With `CCN1CCC[C@H]1CNCc1nnc(Cn2c(SCc3ccc(F)cc3)nc(=O)c3c2CCC3)n1Cc1ccc(-c2ccc(C(F)(F)F)cc2)cc1` [Example 106, (S)-1-((5-(((1-ethylpyrrolidin-2-yl)methylamino)methyl)-4-((4′-(trifluoromethyl)biphenyl-4-yl)methyl)-4H-1,2,4-triazol-3-yl)methyl)-2-(4-fluorobenzylthio)-6,7-dihydro-1H-cyclopenta[d]pyrimidin-4(5H)-one], the inhibition at 0.1 µM at Lp-PLA2 in rabbit serum (setting [1]) was 96%; on Lp-PLA2 in rabbit serum (setting [3]) it was greater than 90%. The results for the inhibition at 0.01 µM at Lp-PLA2 in human serum (setting [2]) and on Lp-PLA2 in human serum (setting [4]) were 80% and greater than 80%, respectively.

As for `CN1CCN(Cc2nnc(Cn3c(SCc4ccc(F)cc4)nc(=O)c4c3CCC4)n2Cc2ccc(-c3ccc(C(F)(F)F)cc3)cc2)CC1` [Example 107, 2-(4-fluorobenzylthio)-1-((5-((4-methylpiperazin-1-yl)methyl)-4-((4′-(trifluoromethyl)biphenyl-4-yl)methyl)-4H-1,2,4-triazol-3-yl)methyl)-6,7-dihydro-1H-cyclopenta[d]pyrimidin-4(5H)-one], the inhibition at 0.1 µM on Lp-PLA2 in rabbit serum (setting [1]) turned out to be 68%; against Lp-PLA2 in human serum (human serum) it was 91%. Besides, at Lp-PLA2 in human serum (setting [2]), the inhibition at 0.01 µM came to 70%.

Consider `CC(=O)NCc1nnc(Cn2c(SCc3ccc(F)cc3)nc(=O)c3c2CCC3)n1Cc1ccc(-c2ccc(C(F)(F)F)cc2)cc1` [Example 110, N-((5-((2-(4-fluorobenzylthio)-4-oxo-4,5,6,7-tetrahydro-1H-cyclopenta[d]pyrimidin-1-yl)methyl)-4-((4′-(trifluoromethyl)biphenyl-4-yl)methyl)-4H-1,2,4-triazol-3-yl)methyl)acetamide], for which the inhibition at 0.1 µM was found to be 67% at Lp-PLA2 in rabbit serum (setting [1]) and 83% against Lp-PLA2 in human serum (human serum). For the same compound, the inhibition at 0.01 µM at Lp-PLA2 in human serum (setting [2]) is 67%.

`CCS(=O)(=O)NCc1nnc(Cn2c(SCc3ccc(F)cc3)nc(=O)c3c2CCC3)n1Cc1ccc(-c2ccc(C(F)(F)F)cc2)cc1` [Example 111, N-((5-((2-(4-fluorobenzylthio)-4-oxo-4,5,6,7-tetrahydro-1H-cyclopenta[d]pyrimidin-1-yl)methyl)-4-((4′-(trifluoromethyl)biphenyl-4-yl)methyl)-4H-1,2,4-triazol-3-yl)methyl)ethanesulfonamide]: the figures for the inhibition at 0.1 µM at Lp-PLA2 in rabbit serum (setting [1]) and on Lp-PLA2 in human serum (human serum) were 75% and 92%, respectively. The inhibition at 0.01 µM on Lp-PLA2 in human serum (setting [2]) amounted to 68%.

As for `O=C1NCCN1Cc1nnc(Cn2c(SCc3ccc(F)cc3)nc(=O)c3c2CCC3)n1Cc1ccc(-c2ccc(C(F)(F)F)cc2)cc1` [Example 112, 2-(4-fluorobenzylthio)-1-((5-((2-oxoimidazolidin-1-yl)methyl)-4-((4′-(trifluoromethyl)biphenyl-4-yl)methyl)-4H-1,2,4-triazol-3-yl)methyl)-6,7-dihydro-1H-cyclopenta[d]pyrimidin-4(5H)-one], the results for the inhibition at 0.1 µM at Lp-PLA2 in rabbit serum (setting [1]) and on Lp-PLA2 in human serum (human serum) were 63% and 87%, respectively. Moreover, the inhibition at 0.01 µM at Lp-PLA2 in human serum (setting [2]) came out at 56%.

For the compound `CNC(=S)NCc1nnc(Cn2c(SCc3ccc(F)cc3)nc(=O)c3c2CCC3)n1Cc1ccc(-c2ccc(C(F)(F)F)cc2)cc1` [Example 113, 1-((5-((2-(4-fluorobenzylthio)-4-oxo-4,5,6,7-tetrahydro-1H-cyclopenta[d]pyrimidin-1-yl)methyl)-4-((4′-(trifluoromethyl)biphenyl-4-yl)methyl)-4H-1,2,4-triazol-3-yl)methyl)-3-methylthiourea], the inhibition at 0.1 µM amounted to 64% on Lp-PLA2 in rabbit serum (setting [1]) and 91% at Lp-PLA2 in human serum (human serum). At Lp-PLA2 in human serum (setting [2]), the inhibition at 0.01 µM was determined as 56%.

For `O=c1nc(SCc2ccc(F)cc2)n(Cc2nnc(CSCc3ccc(F)cc3)n2Cc2ccc(-c3ccc(C(F)(F)F)cc3)cc2)c2c1CCC2` [Example 115, 2-(4-fluorobenzylthio)-1-((5-((4-fluorobenzylthio)methyl)-4-((4′-(trifluoromethyl)biphenyl-4-yl)methyl)-4H-1,2,4-triazol-3-yl)methyl)-6,7-dihydro-1H-cyclopenta[d]pyrimidin-4(5H)-one], the inhibition at 0.1 µM on Lp-PLA2 in rabbit serum (setting [1]) worked out at 78%. Moreover, on Lp-PLA2 in human serum (setting [2]), the inhibition at 0.01 µM turned out to be 77%.

For `CN(C)/N=C/c1nnc(Cn2c(SCc3ccc(F)cc3)nc(=O)c3c2CCC3)n1Cc1ccc(-c2ccc(C(F)(F)F)cc2)cc1` [Example 116, (E)-1-((5-((2,2-dimethylhydrazono)methyl)-4-((4′-(trifluoromethyl)biphenyl-4-yl)methyl)-4H-1,2,4-triazol-3-yl)methyl)-2-(4-fluorobenzylthio)-6,7-dihydro-1H-cyclopenta[d]pyrimidin-4(5H)-one], the figures for the inhibition at 0.1 µM at Lp-PLA2 in rabbit serum (setting [1]), on Lp-PLA2 in rabbit serum (setting [3]) and against Lp-PLA2 in human serum (human serum) were 94%, greater than 90% and 100%, respectively. Moreover, the values for the inhibition at 0.01 µM on Lp-PLA2 in human serum (setting [2]) and on Lp-PLA2 in human serum (setting [4]) were 88% and greater than 80%, respectively.

With `O=c1nc(SCc2ccc(F)cc2)n(Cc2nnc(/C=N/N3CCCCC3)n2Cc2ccc(-c3ccc(C(F)(F)F)cc3)cc2)c2c1CCC2` [Example 117, (E)-2-(4-fluorobenzylthio)-1-((5-((piperidin-1-ylimino)methyl)-4-((4′-(trifluoromethyl)biphenyl-4-yl)methyl)-4H-1,2,4-triazol-3-yl)methyl)-6,7-dihydro-1H-cyclopenta[d]pyrimidin-4(5H)-one], the inhibition at 0.1 µM at Lp-PLA2 in rabbit serum (setting [1]) turned out to be 80%; against Lp-PLA2 in human serum (human serum), 92%. The inhibition at 0.01 µM on Lp-PLA2 in human serum (setting [2]) was found to be 67%.

Turning to `CC(C)(C)N/N=C/c1nnc(Cn2c(SCc3ccc(F)cc3)nc(=O)c3c2CCC3)n1Cc1ccc(-c2ccc(C(F)(F)F)cc2)cc1` [Example 118], the inhibition at 0.1 µM stood at 68% on Lp-PLA2 in rabbit serum (setting [1]) and 88% against Lp-PLA2 in human serum (human serum). In addition, the inhibition at 0.01 µM on Lp-PLA2 in human serum (setting [2]) turned out to be 58%.

For the compound `C=C(OC(C)=O)c1nnc(Cn2c(SCc3ccc(F)cc3)nc(=O)c3c2CCC3)n1Cc1ccc(-c2ccc(C(F)(F)F)cc2)cc1` [Example 119, 1-(5-((2-(4-fluorobenzylthio)-4-oxo-4,5,6,7-tetrahydro-1H-cyclopenta[d]pyrimidin-1-yl)methyl)-4-((4′-(trifluoromethyl)biphenyl-4-yl)methyl)-4H-1,2,4-triazol-3-yl)vinyl acetate], the inhibition at 0.1 µM was 93% at Lp-PLA2 in rabbit serum (setting [1]), greater than 90% at Lp-PLA2 in rabbit serum (setting [3]) and 98% at Lp-PLA2 in human serum (human serum). Moreover, the figures for the inhibition at 0.01 µM at Lp-PLA2 in human serum (setting [2]) and at Lp-PLA2 in human serum (setting [4]) were 94% and greater than 80%, respectively.

`CC(O)c1nnc(Cn2c(SCc3ccc(F)cc3)nc(=O)c3c2CCC3)n1Cc1ccc(-c2ccc(C(F)(F)F)cc2)cc1` (centres unmarked) [Example 120, 2-(4-fluorobenzylthio)-1-((5-(1-hydroxyethyl)-4-((4′-(trifluoromethyl)biphenyl-4-yl)methyl)-4H-1,2,4-triazol-3-yl)methyl)-6,7-dihydro-1H-cyclopenta[d]pyrimidin-4(5H)-one]: the inhibition at 0.1 µM was 90% on Lp-PLA2 in rabbit serum (setting [1]), greater than 90% at Lp-PLA2 in rabbit serum (setting [3]) and 98% against Lp-PLA2 in human serum (human serum). Further, the inhibition at 0.01 µM at Lp-PLA2 in human serum (setting [2]) was 89%; on Lp-PLA2 in human serum (setting [4]), greater than 80%.
